Measurements: PubChem BioAssay AID2060509 (Molecular Pharmacology Branch, DTP, NCI, 2025)

System: 485176-168-R4-J1-PDC spheroids with HUVEC/MSC, viability
Assay: Anticancer human tumor 485176-168-R4-J1-PDC patient-derived pancreatic adenocarcinoma cell line growth inhibition [GQUAD]
Conditions: for IC50: curve of first compound; for viability, T/C: stronger effect = lower value
Outline: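 Multi-cell-type spheroids of tumor cells with HUVEC and mesenchymal stem cells, treated with drug combinations. Concentrations descend in half-log steps from near clinical Cmax, or from 10 microM where Cmax is unknown; viability read-out.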

[1] = second compound 0.0316 µM, first compound 0.0316 µM
[2] = second compound 0.0316 µM, first compound 0.1 µM
[3] = second compound 0.0316 µM, first compound 0.316 µM
[4] = second compound 0.0316 µM, first compound 1 µM
[5] = second compound 0.0316 µM, first compound 3.16 µM
[6] = second compound 0.0316 µM, first compound 10 µM
[7] = second compound 0.1 µM, first compound 0.0316 µM
[8] = second compound 0.1 µM, first compound 0.1 µM
[9] = second compound 0.1 µM, first compound 0.316 µM
[10] = second compound 0.1 µM, first compound 1 µM
[11] = second compound 0.1 µM, first compound 3.16 µM
[12] = second compound 0.1 µM, first compound 10 µM
[13] = second compound 0.316 µM, first compound 0.0316 µM
[14] = second compound 0.316 µM, first compound 0.1 µM
[15] = second compound 0.316 µM, first compound 0.316 µM
[16] = second compound 0.316 µM, first compound 1 µM
[17] = second compound 0.316 µM, first compound 3.16 µM
[18] = second compound 0.316 µM, first compound 10 µM
[19] = second compound 1 µM, first compound 0.0316 µM
[20] = second compound 1 µM, first compound 0.1 µM
[21] = second compound 1 µM, first compound 0.316 µM
[22] = second compound 1 µM, first compound 1 µM
[23] = second compound 1 µM, first compound 3.16 µM
[24] = second compound 1 µM, first compound 10 µM
[25] = second compound 3.16 µM, first compound 0.0316 µM
[26] = second compound 3.16 µM, first compound 0.1 µM
[27] = second compound 3.16 µM, first compound 0.316 µM
[28] = second compound 3.16 µM, first compound 1 µM
[29] = second compound 3.16 µM, first compound 3.16 µM
[30] = second compound 3.16 µM, first compound 10 µM
[31] = second compound 10 µM, first compound 0.0316 µM
[32] = second compound 10 µM, first compound 0.1 µM
[33] = second compound 10 µM, first compound 0.316 µM
[34] = second compound 10 µM, first compound 1 µM
[35] = second compound 10 µM, first compound 3.16 µM
[36] = second compound 10 µM, first compound 10 µM
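Further: spheroids exposed to compounds for seven days before readout.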
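Wherever viability, T/C is given: percent viability relative to DMSO vehicle control wells as 100%.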

## CC1COCCN1c1cc(C2(O)CC3CCC(C2)O3)c2cnn(-c3ccn[nH]3)c2n1 (stereo unspecified) + CN(C)c1ccc(Nc2c3ccc(NC(=O)CCN4CCCC4)cc3nc3cc(NC(=O)CCN4CCCC4)ccc23)cc1
Second compound 0.0316 µM
  IC50: 101 nM
Second compound 0.1 µM
  IC50: 120 nM
Second compound 0.316 µM
  IC50: 98.5 nM
Second compound 1 µM
  IC50: 91 nM
Second compound 3.16 µM
  IC50: 125 nM
Second compound 10 µM
  IC50: 99.6 nM
[1]
  viability, T/C: 79.4%
[2]
  viability, T/C: 49.7%
[3]
  viability, T/C: 25.9%
[4]
  viability, T/C: 9.43%
[5]
  viability, T/C: 12%
[6]
  viability, T/C: 7.83%
[7]
  viability, T/C: 66%
[8]
  viability, T/C: 56.1%
[9]
  viability, T/C: 16.4%
[10]
  viability, T/C: 9.58%
[11]
  viability, T/C: 11.2%
[12]
  viability, T/C: 8.08%
[13]
  viability, T/C: 70.3%
[14]
  viability, T/C: 49.6%
[15]
  viability, T/C: 23%
[16]
  viability, T/C: 10.9%
[17]
  viability, T/C: 9.72%
[18]
  viability, T/C: 8.92%
[19]
  viability, T/C: 80.3%
[20]
  viability, T/C: 47.1%
[21]
  viability, T/C: 21.6%
[22]
  viability, T/C: 9.7%
[23]
  viability, T/C: 10.3%
[24]
  viability, T/C: 8.64%
[25]
  viability, T/C: 72.2%
[26]
  viability, T/C: 54.2%
[27]
  viability, T/C: 30%
[28]
  viability, T/C: 10.4%
[29]
  viability, T/C: 11.8%
[30]
  viability, T/C: 7.71%
[31]
  viability, T/C: 67.1%
[32]
  viability, T/C: 50.2%
[33]
  viability, T/C: 21.1%
[34]
  viability, T/C: 11.6%
[35]
  viability, T/C: 9.48%
[36]
  viability, T/C: 6.52%

## COc1cc(C2c3cc4c(cc3C(OC3OC5COC(C)OC5C(O)C3O)C3COC(=O)C23)OCO4)cc(OC)c1O (stereo unspecified) + CN(C)c1ccc(Nc2c3ccc(NC(=O)CCN4CCCC4)cc3nc3cc(NC(=O)CCN4CCCC4)ccc23)cc1
Second compound 0.0316 µM
  IC50: 340 nM
Second compound 0.1 µM
  IC50: 476 nM
Second compound 0.316 µM
  IC50: 474 nM
Second compound 1 µM
  IC50: 412 nM
Second compound 3.16 µM
  IC50: 333 nM
Second compound 10 µM
  IC50: 303 nM
[1]
  viability, T/C: 87%
[2]
  viability, T/C: 74.7%
[3]
  viability, T/C: 38.9%
[4]
  viability, T/C: 39.6%
[5]
  viability, T/C: 30.1%
[6]
  viability, T/C: 9.84%
[7]
  viability, T/C: 89.6%
[8]
  viability, T/C: 82.8%
[9]
  viability, T/C: 46.4%
[10]
  viability, T/C: 41.2%
[11]
  viability, T/C: 29.2%
[12]
  viability, T/C: 12.1%
[13]
  viability, T/C: 98.8%
[14]
  viability, T/C: 81.5%
[15]
  viability, T/C: 47.5%
[16]
  viability, T/C: 42.2%
[17]
  viability, T/C: 26.3%
[18]
  viability, T/C: 10.1%
[19]
  viability, T/C: 90.6%
[20]
  viability, T/C: 71.6%
[21]
  viability, T/C: 50.6%
[22]
  viability, T/C: 39.1%
[23]
  viability, T/C: 24.6%
[24]
  viability, T/C: 9.92%
[25]
  viability, T/C: 75.5%
[26]
  viability, T/C: 63.7%
[27]
  viability, T/C: 44.5%
[28]
  viability, T/C: 39.5%
[29]
  viability, T/C: 33.6%
[30]
  viability, T/C: 12.8%
[31]
  viability, T/C: 95.5%
[32]
  viability, T/C: 69.8%
[33]
  viability, T/C: 45.3%
[34]
  viability, T/C: 36.9%
[35]
  viability, T/C: 23.4%
[36]
  viability, T/C: 10.2%

## Cc1cccc(N(C)C(=O)C2C(O)CCN2c2nc(C)cc(C(F)(F)F)c2C#N)c1 (stereo unspecified) + CN(C)c1ccc(Nc2c3ccc(NC(=O)CCN4CCCC4)cc3nc3cc(NC(=O)CCN4CCCC4)ccc23)cc1
Second compound 0.0316 µM
  IC50: > 10000 nM
Second compound 0.1 µM
  IC50: > 10000 nM
Second compound 0.316 µM
  IC50: > 10000 nM
Second compound 1 µM
  IC50: > 10000 nM
Second compound 3.16 µM
  IC50: > 10000 nM
Second compound 10 µM
  IC50: > 10000 nM
[1]
  viability, T/C: 103%
[2]
  viability, T/C: 93.5%
[3]
  viability, T/C: 86.2%
[4]
  viability, T/C: 105%
[5]
  viability, T/C: 111%
[6]
  viability, T/C: 102%
[7]
  viability, T/C: 91.9%
[8]
  viability, T/C: 102%
[9]
  viability, T/C: 98%
[10]
  viability, T/C: 84.2%
[11]
  viability, T/C: 94.3%
[12]
  viability, T/C: 98.9%
[13]
  viability, T/C: 106%
[14]
  viability, T/C: 89.1%
[15]
  viability, T/C: 109%
[16]
  viability, T/C: 109%
[17]
  viability, T/C: 118%
[18]
  viability, T/C: 94.3%
[19]
  viability, T/C: 93.5%
[20]
  viability, T/C: 93.6%
[21]
  viability, T/C: 104%
[22]
  viability, T/C: 112%
[23]
  viability, T/C: 101%
[24]
  viability, T/C: 85.6%
[25]
  viability, T/C: 110%
[26]
  viability, T/C: 95.4%
[27]
  viability, T/C: 80.6%
[28]
  viability, T/C: 94%
[29]
  viability, T/C: 111%
[30]
  viability, T/C: 98.2%
[31]
  viability, T/C: 97.3%
[32]
  viability, T/C: 93%
[33]
  viability, T/C: 81.1%
[34]
  viability, T/C: 86.7%
[35]
  viability, T/C: 62%
[36]
  viability, T/C: 59.2%
